Literature values in publication PMC7941644, “Identification and Development of Therapeutics for COVID-19” (ArXiv, 2021).
Where a name gives a salt, the structure may show the parent alone. Read-outs that look alike come from different tables or passages of the source.

Tests used:
[1] = system: Vero E6 cells; conditions: read-out: 90% effective concentration (EC90)
[2] = system: SARS-CoV-1; conditions: Vero E6 cells
[3] = system: COVID-19; design: method as in PMID 33492523; conditions: mild to moderate symptoms, in addition to SOC; p = 0.06
[4] = system: SARS-CoV-2; conditions: SARS-CoV-2 infection of Vero cells
[5] = system: COVID-19; conditions: treatment vs control groups
[6] = system: SARS-CoV-2; conditions: second interim analysis, 600 mg daily; control 3
[7] = system: COVID-19
[8] = system: COVID-19; conditions: vs SOC
[9] = system: COVID-19; conditions: HCQ arm vs control
[10] = system: SARS-CoV-2; conditions: control 16.8%, p < 0.001
[11] = system: COVID-19; conditions: ivermectin preliminary; HCQ and lopinavir-ritonavir ref 144
[12] = system: SARS-CoV-2
[13] = system: COVID-19; remark: listed apart in the source
[14] = system: COVID-19; conditions: days 3–6; study design severely limited
[15] = system: COVID-19; conditions: vs SOC alone
[16] = system: SARS-CoV-2; design: method as in PMID 32142651; conditions: lung cells in vitro
[17] = system: IL-12; design: method as in PMID 8902882
[18] = system: IL-10; design: method as in PMID 8902882
[19] = system: COVID-19; design: method as in doi:10.1101/2020.06.22.20137273
[20] = system: SARS-CoV-2; remark: listed apart in the source
[21] = system: COVID-19; remark: listed apart in the source
[22] = system: COVID-19; remark: listed apart in the source
[23] = system: COVID-19; design: method as in ref 145 = [145]; 145. August 6, 2021: Early Treatment of COVID-19 with Repurposed Therapies: The TOGETHER Adaptive Platform Trial (Edward Mills, PhD, FRCP) Rethinking Clinical Trials ( 2021 - 08 - 11 ) https://rethink; conditions: placebo group 107; preliminary analysis as of August 6, 2021
[24] = system: COVID-19; design: method as in PMID 33065103
[25] = system: COVID-19; design: method as in PMID 33175880
[26] = system: SARS-CoV-2; design: method as in PMID 32251768; conditions: Vero-hSLAM; at concentrations much higher than existing dosage guidelines
[27] = system: COVID-19; design: method as in PMID 33662102; conditions: 400 patients
[28] = system: COVID-19; remark: listed apart in the source
[29] = system: COVID-19; conditions: 95% CI 0.376–0.547, p < 0.001
[30] = system: COVID-19; remark: listed apart in the source
[31] = system: COVID-19; remark: listed apart in the source
[32] = system: COVID-19; conditions: significant when intubated patients excluded
[33] = system: COVID-19; remark: listed apart in the source
[34] = system: COVID-19; conditions: p < 0.001
[35] = system: COVID-19; remark: listed apart in the source
[36] = system: COVID-19; remark: listed apart in the source
[37] = system: COVID-19; design: method as in ref 210; combination ref 208; conditions: phase 2 portion; bamlanivimab alone ref 210; combination ref 208
[38] = system: COVID-19; design: method as in PMID 33031764
[39] = system: SARS-CoV-1; conditions: mouse, in vivo
[40] = system: COVID-19; conditions: compared to placebo

For `CCN(CC)CCCC(C)Nc1ccnc2cc(Cl)ccc12` (centres unmarked) [CQ, chloroquine], the EC90 [1] is given as 6.9 µM, the “inhibition of viral entry” value [2] is given as “inhibited viral entry of SARS-CoV-1” and the hospital stay [3] is given as 15.89 days. For the same compound, the “inhibition of viral replication” value [4] was “effective in inhibiting viral replication”.

For `CCN(CCO)CCCC(C)Nc1ccnc2cc(Cl)ccc12` (centres unmarked) [HCQ, hydroxychloroquine], the “virological clearance rate, time to virological clearance, time to body temperature normalization” value [5] is listed as “comparable outcomes”, the “individuals who had contracted COVID-19” value [6] is listed as 4 and the “difference in viral load between HCQ and control groups” value ([7]; day 3, 95% CI −0.28 to 0.29) is listed as 0.01. For the same compound, the “difference in viral load between HCQ and control groups” value ([7]; day 7, 95% CI −0.44 to 0.29) was −0.07, the “difference in time to complete resolution of symptoms” value ([7]; p = 0.38) was -2 days and the “time to fever break and time to cough relief” value [8] was “decreased both average time to fever break and average time to cough relief”. The “increase in cardiac events” value [9] was 0.4 percentage points, the “patients reporting side effects” value [10] was 40.1% and the “effect on COVID-19 outcomes” value [11] was “no effect”. The “risk with short-term use” value was “not associated with additional risk”, the “median time to symptom alleviation” value ([12]; HCQ + SOC, SOC 21 days, p = 0.97) was 19 days and the “estimated difference in negative conversion rate of SARS-CoV-2 in 28 days” value ([12]; SOC plus HCQ vs SOC, 95% CI −10.3% to 18.5%) was 4.1%. For the same compound, the diarrhea ([12]; SOC+HCQ, 0% in SOC group, p = 0.004) was 10%, the “patients reporting adverse outcomes” value ([12]; SOC+HCQ, SOC only 8.8%) was 30% and the “adjusted HR, risk of death” value ([13]; compared to no-HCQ group) was 2.61. The rate of death ([13]; men, median age 65, no-HCQ group 14.1%) was 27.8%, the “virological clearance by nasopharyngeal swab” value [14] was “higher rates of virological clearance” and the “inhibition of viral replication” value [4] was “effective in inhibiting viral replication”.

For `COC(=O)OCOc1c2n(ccc1=O)N([C@@H]1c3ccccc3SCc3c1ccc(F)c3F)[C@@H]1COCCN1C2=O` [baloxavir marboxil], the “effect on viral clearance at day 14 and secondary outcomes” value [15] is given as “no significant effect”.

For `CN(C)C(=O)COC(=O)Cc1ccc(OC(=O)c2ccc(NC(=N)N)cc2)cc1` [camostat mesylate], the “block of viral entry” value [16] is given as “block the entry of SARS-CoV-2 into lung cells”.

For `C[C@@H]1C[C@H]2[C@@H]3CCC4=CC(=O)C=C[C@]4(C)[C@@]3(F)[C@@H](O)C[C@]2(C)[C@@]1(O)C(=O)CO` [dexamethasone, 9α-fluoro-16α-methylprednisolone], the “effect on IL-12 production” value [17] is listed as “dose-dependent inhibition of IL-12 production”, the “effect on IL-10” value [18] is listed as “not to affect IL-10” and the 28-day mortality rate ([19]; all patients, 6 mg per day for up to 10 days, SOC 24.6%, p < 0.001) is listed as 21.6%. The 28-day mortality ([19]; patients breathing independently at randomization, SOC 14.0%) was 17.8%, the 28-day mortality ([19]; patients receiving oxygen supplementation at randomization, SOC 26.2%) was 23.3% and the 28-day mortality ([19]; patients ventilated at randomization, SOC 41.4%) was 29.3%.

For `O=c1c2ccccc2[se]n1-c1ccccc1` [ebselen], the “antiviral effect in SARS-CoV-2-infected Vero cells” value [20] is given as “strongest potency in reducing the viral load”.

For `NC(=O)c1nc(F)cnc1O` [favipiravir, 6-fluoro-3-hydroxy-2-pyrazinecarboxamide], the “time to viral clearance by RT-PCR” value ([21]; 35 favipiravir, 45 control patients) is given as “four”, the “patients with adverse side effects” value ([21]; control 56%) is given as 11% and the “improvement rate of lung CT scans” value ([21]; day 14, control 62%, p = 0.004) is given as 91%. The “effect on viral clearance at four days (secondary endpoint)” value [22] was “significant effect”, the tolerability [22] was “generally well-tolerated” and the hospital stay [3] was 13.29 days. For the same compound, the “effect on viral clearance at day 14 and secondary outcomes” value [15] was “no significant effect”.

For `COCCCC/C(=N\OCCN)c1ccc(C(F)(F)F)cc1` [fluvoxamine], the “patients progressed to hospitalization for COVID-19” value [23] is given as 74.

In the case of `CC[C@H](C)[C@H]1O[C@]2(CC[C@@H]1C)C[C@@H]1C[C@@H](C/C=C(\C)[C@@H](O[C@H]3C[C@H](OC)[C@@H](O[C@H]4C[C@H](OC)[C@@H](O)[C@H](C)O4)[C@H](C)O3)[C@@H](C)/C=C/C=C3\CO[C@@H]4[C@H](O)C(C)=C[C@@H](C(=O)O1)[C@]34O)O2` [ivermectin], the all-cause mortality [24] is given as “reduced all-cause mortality”, the “clinical outcomes or viral clearance” value [25] is given as “no difference in clinical outcomes or viral clearance” and the “inhibition of viral replication” value [26] is given as “inhibit viral replication”. For the same compound, the “effect on COVID-19 outcomes” value [11] was “no effect on COVID-19 outcomes” and the duration of symptoms [27] was “no effect on the duration of symptoms”.

In the case of `Cc1cccc(C)c1OCC(=O)N[C@@H](Cc1ccccc1)[C@@H](O)C[C@H](Cc1ccccc1)NC(=O)[C@H](C(C)C)N1CCCNC1=O` [lopinavir], the “effect on COVID-19-related mortality” value [28] is listed as “no effect”.

For “TCZ: humanized monoclonal antibody that binds the insoluble and soluble receptor of IL-6”, the “odds ratio of mortality” value [29] is listed as 0.453, the “change in symptoms following treatment” value [30] is listed as “rapid improvement in symptoms” and the patients dying ([31]; 2 of 62 admitted after TCZ available, 11 of 23 (47.8%) before) is listed as 3.2%. For the same compound, the “multivariate HR, survival” value ([31]; CI 0.004–0.347, p = 0.004) was 0.035, the “mortality, TCZ vs SOC” value [32] was “did not differ” and the “rate ratio, hospital discharge within 28 days” value ([33]; 95% CI 1.12–1.34, p < 0.0001) was 1.22. The “rate ratio, 28-day mortality” value ([33]; RECOVERY combined with seven smaller randomized control trials, 95% CI 0.79–0.96, p = 0.005) was 0.87, the 28-day mortality ([33]; SOC alone 33%) was 29% and the “rate ratio, 28-day mortality” value ([33]; TCZ vs SOC, 95% CI 0.77–0.96, p = 0.007) was 0.86. The “reduction in 28-day mortality” value ([33]; combined analysis of RECOVERY with smaller RCTs) was 13%, the “probability of hospital discharge within 28 days” value ([33]; living patients, SOC 47%) was 54% and the “participants with adverse reactions determined to be associated with the intervention” value ([33]; out of 2,022 participants receiving TCZ) was “three”. The “HR, survivorship” value ([34]; 19 studies) was 0.41, the “HR, survivorship” value ([34]; excluding studies that administered a steroid alongside TCZ) was 0.04 and the “progression to invasive medical ventilation” value ([35]; SOC 32%, p = 0.006) was 0%. For the same compound, the mortality ([35]; SOC 48%, p = 0.066) was 25%, the “progression to death and/or ICU admission” value ([35]; SOC 72%, p = 0.002) was 25% and the “adjusted HR, progression to invasive medical ventilation and/or death” value ([36]; 14-day period, CI 0.40–0.92, p = 0.020) was 0.61. The death rate ([36]; control 20%) was 7% and the secondary infections ([36]; control group 4%, p < 0.0001) was 24%.

In the case of “bamlanivimab: human mAb derived from convalescent plasma of a recovered COVID-19 patient”, the “effect on viral load” value [37] is given as “able to accelerate the reduction in viral load”.

In the case of lopinavir-ritonavir, the “effect on COVID-19-related mortality” value [38] is listed as “no effect” and the “effect on COVID-19 outcomes” value [11] is listed as “no effect”.

In the case of poly(I:C), the “effect when administered prior to infection” value [39] is listed as “protective effects”.

For sotrovimab, the “rates of adverse events” value [40] is given as “comparable, and in some cases lower” and the “more effective in reducing progression to the primary endpoint (hospitalized for more than 24 hours or died within 29 days)” value ([40]; 583 patients) is given as 85%.
